Assay results taken from US20040152722A1 (priority 2001, published 2004).

Key:
[1] = test system: Tremor Model of Mice Induced by Agonist of Cholinergic M-Receptor: Arecaline; settings: mouse, in vivo, po
[2] = test system: Rigidity Model of Mouse Induced By Haloperidol; settings: in vivo, po

## OC(CCN1CCCCC1)(c1ccccc1)C1CCCCC1 (centres unmarked) [Benzhexol]
[1]
  ED50 + L95: 8.82 ± 0.83 mg/kg
[2]
  ED50 + L95: 19.56 ± 1.44 mg/kg
